Test results published in paper PMC10288926 (Journal of Enzyme Inhibition and Medicinal Chemistry, 2023).
Like-named read-outs stand apart in the source and are kept apart here.

Tests used:
ROS1 = ROS1 (Homo sapiens, UniProt P08922); assay: HTRF KinEASE-TK kinase inhibitory assay, ROS1; type: biochemical; settings: for inhibition at 1 µM: read-out: ROS1 Inhibition (1μM); for ROS1 Inhibition (1μM): kinase inhibition % at 1 μM
ALK^WT = ALK^WT (Homo sapiens, UniProt Q9UM73); assay: HTRF KinEASE-TK kinase inhibitory assay, ALK wild type; type: biochemical; settings: for inhibition at 1 µM: read-out: ALK Inhibition (1μM); for ALK Inhibition (1μM): kinase inhibition % at 1 μM
Sequence of ALK^WT (Q9UM73 19-1620): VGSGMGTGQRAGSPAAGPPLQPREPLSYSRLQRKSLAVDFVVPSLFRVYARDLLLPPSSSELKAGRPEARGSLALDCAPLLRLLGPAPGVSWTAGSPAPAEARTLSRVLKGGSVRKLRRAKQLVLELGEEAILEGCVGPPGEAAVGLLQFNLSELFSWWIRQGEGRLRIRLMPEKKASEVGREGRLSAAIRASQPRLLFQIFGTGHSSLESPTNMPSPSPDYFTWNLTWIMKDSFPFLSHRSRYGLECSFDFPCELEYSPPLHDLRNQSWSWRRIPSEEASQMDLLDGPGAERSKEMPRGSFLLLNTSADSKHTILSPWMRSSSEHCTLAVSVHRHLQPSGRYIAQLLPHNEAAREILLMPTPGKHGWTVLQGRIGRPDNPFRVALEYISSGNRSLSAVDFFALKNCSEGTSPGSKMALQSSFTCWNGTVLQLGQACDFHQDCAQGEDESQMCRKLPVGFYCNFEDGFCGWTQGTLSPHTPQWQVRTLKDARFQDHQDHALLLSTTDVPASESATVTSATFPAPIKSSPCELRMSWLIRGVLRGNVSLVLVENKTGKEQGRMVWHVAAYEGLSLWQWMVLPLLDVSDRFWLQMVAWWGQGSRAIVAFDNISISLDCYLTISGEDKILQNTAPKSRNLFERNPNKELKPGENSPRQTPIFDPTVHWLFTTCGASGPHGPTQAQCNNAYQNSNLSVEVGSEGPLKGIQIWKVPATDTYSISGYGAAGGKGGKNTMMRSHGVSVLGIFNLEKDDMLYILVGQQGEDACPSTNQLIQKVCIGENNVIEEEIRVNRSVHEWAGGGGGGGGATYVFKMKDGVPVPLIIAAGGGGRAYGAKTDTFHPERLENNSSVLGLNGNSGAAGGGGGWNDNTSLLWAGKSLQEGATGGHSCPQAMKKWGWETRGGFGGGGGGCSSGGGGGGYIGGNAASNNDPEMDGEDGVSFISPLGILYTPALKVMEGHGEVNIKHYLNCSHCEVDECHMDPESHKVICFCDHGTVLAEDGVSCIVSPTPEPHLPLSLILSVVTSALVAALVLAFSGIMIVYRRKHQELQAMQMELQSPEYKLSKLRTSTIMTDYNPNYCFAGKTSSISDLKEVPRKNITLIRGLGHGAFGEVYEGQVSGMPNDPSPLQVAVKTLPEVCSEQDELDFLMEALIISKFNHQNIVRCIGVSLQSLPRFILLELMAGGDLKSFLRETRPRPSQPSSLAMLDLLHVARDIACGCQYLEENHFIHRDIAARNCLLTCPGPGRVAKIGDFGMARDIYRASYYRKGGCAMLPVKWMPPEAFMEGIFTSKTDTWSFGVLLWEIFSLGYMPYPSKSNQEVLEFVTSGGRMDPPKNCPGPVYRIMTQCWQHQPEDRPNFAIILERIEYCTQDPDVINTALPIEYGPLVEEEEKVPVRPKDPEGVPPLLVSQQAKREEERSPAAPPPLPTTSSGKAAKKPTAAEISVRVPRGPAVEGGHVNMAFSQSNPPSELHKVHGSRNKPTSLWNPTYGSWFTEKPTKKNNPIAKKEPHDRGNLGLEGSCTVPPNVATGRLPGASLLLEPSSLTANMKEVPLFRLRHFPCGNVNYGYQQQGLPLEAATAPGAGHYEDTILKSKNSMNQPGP

c-MET = c-MET (Homo sapiens, UniProt P08581); assay: HTRF kinase inhibitory assay, c-MET; type: biochemical; settings: for inhibition at 1 µM: read-out: c-MET Inhibition (1μM); for c-MET Inhibition (1μM): kinase inhibition % at 1 μM
Sequence of c-MET (P08581 25-1390): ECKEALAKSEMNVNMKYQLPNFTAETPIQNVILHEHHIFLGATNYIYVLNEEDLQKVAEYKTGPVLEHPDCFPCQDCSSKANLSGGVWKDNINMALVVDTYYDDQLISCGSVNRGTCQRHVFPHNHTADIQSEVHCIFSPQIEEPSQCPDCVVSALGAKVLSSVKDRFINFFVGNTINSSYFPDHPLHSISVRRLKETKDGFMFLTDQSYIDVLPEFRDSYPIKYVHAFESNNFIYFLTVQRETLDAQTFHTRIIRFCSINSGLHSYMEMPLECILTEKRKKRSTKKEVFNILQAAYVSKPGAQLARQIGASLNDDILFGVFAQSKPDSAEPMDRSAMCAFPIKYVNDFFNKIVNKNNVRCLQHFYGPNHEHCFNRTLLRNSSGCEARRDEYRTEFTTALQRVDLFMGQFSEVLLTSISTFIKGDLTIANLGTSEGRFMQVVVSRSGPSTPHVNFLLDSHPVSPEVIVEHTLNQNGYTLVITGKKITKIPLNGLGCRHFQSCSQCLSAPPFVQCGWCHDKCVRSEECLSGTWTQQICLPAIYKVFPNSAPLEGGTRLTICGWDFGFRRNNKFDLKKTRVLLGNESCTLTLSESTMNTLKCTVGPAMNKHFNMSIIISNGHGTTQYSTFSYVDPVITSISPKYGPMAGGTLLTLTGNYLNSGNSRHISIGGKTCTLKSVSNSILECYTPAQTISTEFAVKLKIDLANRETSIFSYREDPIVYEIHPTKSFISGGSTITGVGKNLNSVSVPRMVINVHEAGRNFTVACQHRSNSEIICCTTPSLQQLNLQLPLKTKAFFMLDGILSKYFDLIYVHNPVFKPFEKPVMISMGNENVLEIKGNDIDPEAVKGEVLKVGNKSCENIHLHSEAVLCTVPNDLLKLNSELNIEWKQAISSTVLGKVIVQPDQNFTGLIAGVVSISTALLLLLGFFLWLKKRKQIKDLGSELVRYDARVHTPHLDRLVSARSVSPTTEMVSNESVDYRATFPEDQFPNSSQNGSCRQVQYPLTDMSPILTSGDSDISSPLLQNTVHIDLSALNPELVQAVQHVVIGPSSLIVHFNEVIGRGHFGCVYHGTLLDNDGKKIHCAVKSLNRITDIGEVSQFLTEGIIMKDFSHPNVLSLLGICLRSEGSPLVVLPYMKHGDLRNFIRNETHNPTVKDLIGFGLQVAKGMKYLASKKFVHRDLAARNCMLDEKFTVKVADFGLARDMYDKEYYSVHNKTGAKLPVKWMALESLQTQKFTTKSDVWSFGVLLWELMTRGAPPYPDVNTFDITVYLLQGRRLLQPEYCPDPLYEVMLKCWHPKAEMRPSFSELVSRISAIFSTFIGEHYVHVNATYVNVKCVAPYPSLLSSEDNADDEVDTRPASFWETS

[1] = system: HCC-78 cell line harbouring SLC34A2-ROS1 fusion; assay: Antiproliferative MTT assay, HCC-78; type: cell-based, human; settings: read-out: Cellular IC50 (μM) HCC-78
[2] = system: NCI-H3122 cell line harbouring EML4-ALK fusion; assay: Antiproliferative MTT assay, NCI-H3122; type: cell-based, human; settings: read-out: Cellular IC50 (μM) NCI-H3122
[3] = read-out: ROS1 IC50, average of two independent experiments
[4] = MTT, 72 h, mean of at least three independent experiments
[5] = average of two independent experiments

Row | Compound | IC50 (ROS1) | inhibition at 1 µM (ROS1) | IC50 (ALK^WT) | inhibition at 1 µM (ALK^WT) | inhibition at 1 µM (c-MET) | IC50 ([1]; Homo sapiens, HCC78, 72 h) | IC50 ([2]; Homo sapiens, NCI-H3122, 72 h) | also measured
1 | C[C@@H](Oc1cc(-c2ccnn2C)cnc1N)c1ccccc1-c1ccccc1 [B07, (R)-3–(1-([1,1'-biphenyl]-2-yl)ethoxy)-5–(1-methyl-1H-pyrazol-5-yl)pyridin-2-amine] | 65.7 nM | 99% | 217 nM | 99% | 8% | 16.9 ± 1.4 µM | 14.3 ± 3.6 µM | –
2 | C[C@@H](Oc1cc(-c2cnn(C)c2)cnc1N)c1ccccc1 [A02, (R)-5–(1-methyl-1H-pyrazol-4-yl)-3–(1-phenylethoxy)pyridin-2-amine] | 99.5 nM | 101% | 458 nM | 65% | 2% | 36.4 ± 3.7 µM | 149 ± 18.5 µM | –
3 | (R)-5–(6-amino-5–(1-(4'-fluoro-[1,1'-biphenyl]-2-yl)ethoxy)pyridin-3-yl)-1'-methylspiro[indoline-3,4'-piperidin]-2-one [C06] | – | – | – | – | – | – | – | ROS1 Inhibition (1μM) (ROS1; average of two independent experiments, 1 µM): 98%; IC50 (ROS1; [3]): 31.2 nM; ALK Inhibition (1μM) (ALK^WT; 1 µM): 91%; IC50 (ALK^WT; read-out: ALK IC50): 214 nM; c-MET Inhibition (1μM) (c-MET; 1 µM): 58%; IC50 [1, 4]: 3.1 ± 0.3 µM; IC50 [2, 4]: 1.4 ± 0.1 µM
4 | C[C@@H](Oc1cc(-c2cnn(C)c2)cnc1N)c1ccccc1-c1ccnn1C [B03, (R)-5–(1-methyl-1H-pyrazol-4-yl)-3–(1-(2–(1-methyl-1H-pyrazol-5-yl)phenyl)ethoxy)pyridin-2-amine] | 374 nM | 74% | 286 nM | 88% | 21% | 52.7 ± 15.2 µM | 207 ± 40.7 µM | –
5 | C[C@@H](Oc1cc(-c2cccn2C)cnc1N)c1ccccc1-c1ccnn1C [B01, (R)-3–(1-(2–(1-methyl-1H-pyrazol-5-yl)phenyl)ethoxy)-5–(1-methyl-1H-pyrrol-2-yl)pyridin-2-amine] | 103 nM | 81% | – | 30% | 0% | 33.9 ± 1.8 µM | 186 ± 8.6 µM | –
6 | (R)-5–(6-amino-5–(1-(4'-methyl-[1,1'-biphenyl]-2-yl)ethoxy)pyridin-3-yl)-1'-methylspiro[indoline-3,4'-piperidin]-2-one [C04] | – | – | – | – | – | – | – | ROS1 Inhibition (1μM) (ROS1; [5]): 100%; IC50 (ROS1; [3]): 16.5 nM; ALK Inhibition (1μM) (ALK^WT): 100%; IC50 (ALK^WT; read-out: ALK IC50): 38.8 nM; c-MET Inhibition (1μM) (c-MET): 43%; IC50 [2, 4]: 2.4 ± 0.3 µM
7 | (R)-5–(6-amino-5–(1-(4'-(trifluoromethoxy)-[1,1'-biphenyl]-2-yl)ethoxy)pyridin-3-yl)-1'-methylspiro[indoline-3,4'-piperidin]-2-one [C07] | – | – | – | – | – | – | – | ROS1 Inhibition (1μM) (ROS1; [5]): 95%; IC50 (ROS1; [3]): 73.6 nM; ALK Inhibition (1μM) (ALK^WT): 55%; IC50 (ALK^WT; read-out: ALK IC50): 414 nM; c-MET Inhibition (1μM) (c-MET): 18%; IC50 [1, 4]: 4.2 ± 0.2 µM; IC50 [2, 4]: 2.4 ± 0.1 µM
8 | CCCn1cc(-c2cnc(N)c(O[C@H](C)c3ccccc3-c3ccccc3)c2)cn1 [B10, (R)-3–(1-([1,1'-biphenyl]-2-yl)ethoxy)-5–(1-propyl-1H-pyrazol-4-yl)pyridin-2-amine] | 148 nM | 98% | – | 82% | 60% | 7.7 ± 1.2 µM | 13.9 ± 1.2 µM | –
9 | C[C@@H](Oc1cc(-c2ccnn2C)cnc1N)c1ccccc1-c1ccnn1C [B02, (R)-5–(1-methyl-1H-pyrazol-5-yl)-3–(1-(2–(1-methyl-1H-pyrazol-5-yl)phenyl)ethoxy)pyridin-2-amine] | 216 nM | 86% | – | 30% | 6% | 64.8 ± 4.5 µM | 689 ± 57.2 µM | –
10 | C[C@@H](Oc1cc(-c2ccnn2C)cnc1N)c1ccccc1 [A01, (R)-5–(1-methyl-1H-pyrazol-5-yl)-3–(1-phenylethoxy)pyridin-2-amine] | 173 nM | 101% | 407 nM | 90% | 5% | 28.7 ± 5.8 µM | 152 ± 44.4 µM | –

Now from value to compound, other results behind:

Row | IC50 (ROS1) | inhibition at 1 µM (ROS1) | IC50 (ALK^WT) | inhibition at 1 µM (ALK^WT) | inhibition at 1 µM (c-MET) | IC50 ([1]; Homo sapiens, HCC78, 72 h) | IC50 ([2]; Homo sapiens, NCI-H3122, 72 h) | Compound | also measured
11 | 317 nM | 85% | 454 nM | 65% | 14% | 50.5 ± 14 µM | 101 ± 22.8 µM | CCn1cc(-c2cnc(N)c(O[C@H](C)c3ccccc3)c2)cn1 [A03, (R)-5–(1-ethyl-1H-pyrazol-4-yl)-3–(1-phenylethoxy)pyridin-2-amine] | –
12 | 120 nM | 91% | – | 58% | 22% | 13.9 ± 6.3 µM | 36.8 ± 2.5 µM | CCCn1cc(-c2cnc(N)c(O[C@H](C)c3ccccc3F)c2)cn1 [A08, (R)-3–(1-(2-fluorophenyl)ethoxy)-5–(1-propyl-1H-pyrazol-4-yl)pyridin-2-amine] | –
13 | – | 43% | – | 18% | -10% | 278 ± 53.1 µM | 168 ± 39.4 µM | C[C@@H](Oc1cc(-c2cccn2C)cnc1N)c1ccccc1F [A05, (R)-3–(1-(2-fluorophenyl)ethoxy)-5–(1-methyl-1H-pyrrol-2-yl)pyridin-2-amine] | –
14 | 80.5 nM | – | – | 59% | 28% | 28 ± 4.5 µM | 128 ± 25.5 µM | CCn1cc(-c2cnc(N)c(O[C@H](C)c3ccccc3-c3ccnn3C)c2)cn1 [B04, (R)-5–(1-ethyl-1H-pyrazol-4-yl)-3–(1-(2–(1-methyl-1H-pyrazol-5-yl)phenyl)ethoxy)pyridin-2-amine] | –
15 | 83.1 nM | 100% | 231 nM | 73% | 11% | 16 ± 1.2 µM | 10.2 ± 0.1 µM | C[C@@H](Oc1cc(-c2cnn(C)c2)cnc1N)c1ccccc1F [A06, (R)-3–(1-(2-fluorophenyl)ethoxy)-5–(1-methyl-1H-pyrazol-4-yl)pyridin-2-amine] | –
16 | – | 99% | 75.9 nM | 92% | 50% | 11.4 ± 0.5 µM | 8.5 ± 1.2 µM | CCn1cc(-c2cnc(N)c(O[C@H](C)c3ccccc3-c3ccccc3)c2)cn1 [B09, (R)-3–(1-([1,1'-biphenyl]-2-yl)ethoxy)-5–(1-ethyl-1H-pyrazol-4-yl)pyridin-2-amine] | –
17 | 260 nM | 90% | 1160 nM | 42% | 26% | 21.3 ± 0.7 µM | 96.2 ± 6.9 µM | CCCn1cc(-c2cnc(N)c(O[C@H](C)c3ccccc3-c3ccnn3C)c2)cn1 [B05, (R)-3–(1-(2–(1-methyl-1H-pyrazol-5-yl)phenyl)ethoxy)-5–(1-propyl-1H-pyrazol-4-yl)pyridin-2-amine] | –
18 | 964 nM | 64% | 1540 nM | 37% | 5% | – | – | CCCn1cc(-c2cnc(N)c(O[C@H](C)c3ccccc3)c2)cn1 [A04, (R)-3–(1-phenylethoxy)-5–(1-propyl-1H-pyrazol-4-yl)pyridin-2-amine] | fold decrease in ROS1 potency compared to A02 (ROS1; 963.9 nM vs. 99.5 nM): ~10 fold
19 | 81.4 nM | 87% | – | 69% | 18% | – | – | CCn1cc(-c2cnc(N)c(O[C@H](C)c3ccccc3F)c2)cn1 [A07, (R)-5–(1-ethyl-1H-pyrazol-4-yl)-3–(1-(2-fluorophenyl)ethoxy)pyridin-2-amine] | –
